Experimental data reported in patent US20260125346A1, “Isoquinolinone Derivatives and 4H-Quinolizinone Derivatives and Pharmaceutical Compositions Thereof for the Treatment of Disease” (BeOne Medicines I GmbH, priority 2023, published 2026).
pIC50: −log10 of the molar value.

Tests used:
[1] = tested on: PI3Kα H1047R mutated cell line T-47D cells; test: Cell Proliferation Assay (CellTiter-Glo), T-47D; assay type: cell-based; conditions: for pIC50: Homo sapiens, T47D, 72 h, T-47D, 3 days treatment; for Selectivity: SK-BR-3/T-47D (cell proliferation): cell proliferation IC50 ratio
Experimental: (§1) Cell Culture Maintenance. The T-47D (ATCC, HTB-133) cell line was obtained from the American Type Culture Collection. Cells were maintained in RPMI1640 medium (Gibco, REF #22400105) supplemented with 10% Fetal Bovine Serum (Gibco, REF #10091148). Cultures were maintained in a humidified incubator at 37° C. under 5% CO2/95% air.
Cell Proliferation Assay. PI3Kα H1047R mutated cell line T-47D cells and WT cell line SK-BR-3 were seeded at a density of 3×10^3 cells per well in 96 well plate (Xinyou Biotechnology, 062096) in 95 μL of culture medium, overnight. Compounds dissolved in 10 mM stock solutions in DMSO were serially diluted 1:3 in DMSO to generate a 9-point dilution series and plated using an INTEGRA ASSIST Plus pipetting robot. A 20× intermediate compound dilution plate in RPMI1640 medium (200 M starting compound concentration in 2% DMSO) was then prepared. Five μL of intermediate serially diluted compounds were added to the cell plate to final concentrations ranging from […] to 1 nM in 0.1% DMSO. 0.1% DMSO alone was used to establish the maximum signal and medium without cells was for minimum signal. After 3 days treatment, equilibrated the plate and its contents at room temperature for approximately 30 minutes. Added 30 μL CellTiter-Glo® Reagent (Promega, REF #G7571) to each well. Then mixed contents for 5 min on plate shaker to induce cell lysis. Incubated at room temperature for 10 minutes to stabilize luminescent signal. The plates were read on PHERAstar FSX Microplate reader using standard luminescence settings.
Relative IC50 values were determined using luminescence units by calculating percent inhibition with respect to the in-plate “MIN” (medium only) and “MAX” (0.1% DMSO) controls. The data were analyzed using a 4-parameter nonlinear logistic equation (four-parameter logistic concentration-response curve): Y=bottom+[(top−bottom)/1+(X/IC50) slope] • where Y=% inhibition, X=concentration of inhibitor, bottom=minimum value of y attained by curve-fit, top=maximum value of y attained by curve-fit and slope=steepness of curve at the IC50.

[2] = target: PI3Kα (p110/p85) kinase (wild type, "WT") (Homo sapiens, UniProt P42336); test: PI3Kα (p110/p85) kinase ADP-Glo Assay; assay type: biochemical; conditions: 25 uM ATP
Experimental: PI3Kα (p110/p85) kinase ADP-Glo Assay. Certain compounds disclosed herein were tested for inhibition of PI3Kα (p110/p85) kinase (wild type, “WT”) in assays based on the ADP-Glo™ Kinase Assay methodology. The assays were carried out in 384-well white plates in a reaction mixture containing PI3Kα (p110/p85) kinase, 25 µM ATP, 5.35 µg/mL PI(4,5)P2:PS Lipid Kinase Substrate and […] compound in buffer containing 50 mM HEPES pH7.5, 50 mM NaCl, 3 mM MgCl2, 0.0025% BSA and 2 mM DTT. PI3Kα (p110/p85) kinase was incubated with Lipid Kinase Substrate and compound for 30 minutes at room temperature and the reaction was initiated by the addition of ATP. After reaction at room temperature for 120 minutes, ADP-Glo™ reagents were added to terminate the kinase reaction and deplete the remaining ATP according to the manufacture's instruction (Promega Corporation). After incubation at room temperature for 1 hour, Kinase Detection Reagent (prepared by reconstituting the lyophilized Kinase Detection Substrate with Kinase Detection Buffer of the kit) was added to convert the ADP to ATP and to allow for the newly synthesized ATP to be measured using a luciferase/luciferin reaction. After incubation at room temperature for 0.5 hour, chemiluminescence signals were recorded on a PHERAstar FSX plate reader (BMG Labtech). The chemiluminescence generated in this assay correlates to the amount of ADP generated in the kinase assay, indicating kinase activity. […] The IC50 for each compound was derived from fitting the data to the four-parameter logistic equation by Dotmatics.

[3] = tested on: PI3Kα H1047R mutated cell line T-47D; test: Phospho-AKT (Ser473) Inhibition Assay (HTRF), T-47D; assay type: cell-based; conditions: for pIC50: Homo sapiens, T47D, T-47D, 1 hour treatment, read-out: p-AKT Inhibition assay (S473) IC50 T-47D; for Selectivity: SK-BR-3/T-47D (p-AKT): p-AKT (S473) IC50 ratio
Experimental: as §1
Phospho-AKT Inhibition Assay. HTRF Phospho-AKT (Ser473) detection kit (Cisbio, REF #64AKSPEH) was used in phosphor-AKT inhibition assay. For compound screening, PI3Kα H1047R mutated cell line T-47D and WT cell line SK-BR-3 cells were seeded at a density of 3×10^4 cells per well in 96 well plate (Costar, REF #3599) in 95 μL of assay medium (MEM medium (Gibco, REF #12561-056) with 1×NEAA (Gibco, REF #11140-050), 1 mM sodium pyruvate (Gibco, REF #11360-070), and 1 g/ml human insulin (Topscience, REF #T8221)), overnight. Compounds dissolved in 10 mM stock solutions in DMSO were serially diluted 1:3 in DMSO to generate an 11-point dilution series and plated using an INTEGRA ASSIST PLUS pipetting robot. A 20× intermediate compound dilution plate in RPMI1640 medium (200 M starting compound concentration in 2% DMSO) was then prepared. Five μL of intermediate serially diluted compounds were added to the cell plate to final concentrations ranging from […] to 0.1 nM in 0.1% DMSO. 0.1% DMSO alone was used to establish the maximum signal and GDC0077 at final concentration of 10 μM was used as a reference compound for minimum signal. After 1 hour treatment, removed medium and added 50 μL of supplemented lysis buffer (1×) immediately. Incubated for at least 30 minutes at room temperature under shaking. Transferred 16 μL of cell lysate from the 96-well cell-culture plate to a 384-white detection plate (PerkinElmer, Optiplate 384, 6007299). Added 4 μL of premixed antibody solutions prepared in the detection buffer. Incubated 4 hours at room temperature in dark. The plates were read on PHERAstar FSX Microplate reader (BMG LABTECH, Inc.) using standard HTRF settings.
Relative IC50 values were determined using luminescence units by calculating percent inhibition with respect to the in-plate “MIN” (GDC0077 reference control) and “MAX” (DMSO) controls. The data were analyzed using a 4-parameter nonlinear logistic equation (four-parameter logistic concentration-response curve): Y=bottom+[(top−bottom)/1+(X/IC50) slope] • where Y=% inhibition, X=concentration of inhibitor, bottom=minimum value of y attained by curve-fit, top=maximum value of y attained by curve-fit and slope=steepness of curve at the IC50.

PI3Kα (p110/p85) kinase (wild type, "WT"), sequence (P42336 whole entry): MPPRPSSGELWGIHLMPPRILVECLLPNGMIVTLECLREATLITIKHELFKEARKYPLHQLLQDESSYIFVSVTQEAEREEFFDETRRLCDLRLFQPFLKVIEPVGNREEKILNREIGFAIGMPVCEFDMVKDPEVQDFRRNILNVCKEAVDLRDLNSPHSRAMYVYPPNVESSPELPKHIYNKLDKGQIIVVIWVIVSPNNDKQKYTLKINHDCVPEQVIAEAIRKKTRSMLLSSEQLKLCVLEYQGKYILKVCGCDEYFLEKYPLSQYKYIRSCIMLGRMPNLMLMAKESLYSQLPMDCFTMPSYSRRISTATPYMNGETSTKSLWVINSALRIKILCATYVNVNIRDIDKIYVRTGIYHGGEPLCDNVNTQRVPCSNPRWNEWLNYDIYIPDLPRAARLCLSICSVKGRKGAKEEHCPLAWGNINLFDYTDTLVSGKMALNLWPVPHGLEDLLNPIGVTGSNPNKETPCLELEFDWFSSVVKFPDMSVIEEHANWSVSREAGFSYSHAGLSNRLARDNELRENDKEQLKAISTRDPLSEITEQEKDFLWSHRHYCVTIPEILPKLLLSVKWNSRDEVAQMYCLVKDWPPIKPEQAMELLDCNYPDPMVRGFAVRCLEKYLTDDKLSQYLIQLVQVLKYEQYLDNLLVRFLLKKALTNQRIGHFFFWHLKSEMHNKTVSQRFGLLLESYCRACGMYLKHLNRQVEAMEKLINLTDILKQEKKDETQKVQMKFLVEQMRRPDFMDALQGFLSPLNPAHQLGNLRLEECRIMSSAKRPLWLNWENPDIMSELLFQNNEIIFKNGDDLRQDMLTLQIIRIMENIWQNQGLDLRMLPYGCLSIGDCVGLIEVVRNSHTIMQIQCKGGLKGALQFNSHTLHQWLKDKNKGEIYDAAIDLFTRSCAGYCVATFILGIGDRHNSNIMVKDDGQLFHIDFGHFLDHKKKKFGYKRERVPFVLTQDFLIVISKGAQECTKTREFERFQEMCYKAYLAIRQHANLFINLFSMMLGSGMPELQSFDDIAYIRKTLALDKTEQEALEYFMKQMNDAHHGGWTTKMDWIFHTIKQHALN
PI3Kα (p110/p85) kinase (wild type, "WT"), sequence (P27986 whole entry partner): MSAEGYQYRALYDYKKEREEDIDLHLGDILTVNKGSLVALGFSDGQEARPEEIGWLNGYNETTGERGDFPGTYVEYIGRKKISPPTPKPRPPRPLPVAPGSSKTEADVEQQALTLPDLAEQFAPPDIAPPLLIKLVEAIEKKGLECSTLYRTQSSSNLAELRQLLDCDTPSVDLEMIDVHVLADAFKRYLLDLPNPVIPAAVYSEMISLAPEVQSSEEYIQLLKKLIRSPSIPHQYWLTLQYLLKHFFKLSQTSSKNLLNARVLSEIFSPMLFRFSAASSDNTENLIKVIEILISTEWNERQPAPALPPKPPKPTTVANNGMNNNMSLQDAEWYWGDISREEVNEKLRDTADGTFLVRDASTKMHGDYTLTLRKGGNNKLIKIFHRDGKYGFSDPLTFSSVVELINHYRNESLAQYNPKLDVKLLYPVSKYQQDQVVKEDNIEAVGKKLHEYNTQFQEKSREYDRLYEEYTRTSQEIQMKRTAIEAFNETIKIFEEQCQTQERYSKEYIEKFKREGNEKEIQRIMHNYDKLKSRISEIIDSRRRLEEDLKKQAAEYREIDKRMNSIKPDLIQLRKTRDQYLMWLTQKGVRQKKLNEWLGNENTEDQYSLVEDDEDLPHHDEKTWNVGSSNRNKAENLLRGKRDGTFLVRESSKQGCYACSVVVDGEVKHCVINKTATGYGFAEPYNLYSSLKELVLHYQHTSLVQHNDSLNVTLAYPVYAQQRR

Row | SMILES | pIC50 [1] | pIC50 [2] | pIC50 [3] | Selectivity: SK-BR-3/T-47D (cell proliferation) [1] | Selectivity: SK-BR-3/T-47D (p-AKT) [3]
1 | Cc1cc([C@H](C)Nc2ccccc2C(=O)O)c2cc(-c3ccccc3)n(C)c(=O)c2c1 [Example 31, (S)-2-((1-(2,7-dimethyl-1-oxo-3-phenyl-1,2-dihydroisoquinolin-5-yl)ethyl)amino)benzoic acid] | < 5.00 | < 4.00 | < 5.00 |  | 
2 | Cc1cc(C(C)Nc2ccccc2C(=O)O)c2cc(-c3ccc4nn(C)cc4c3)n(C)c(=O)c2c1 (centres unmarked) [Example 19, 2-((1-(2,7-dimethyl-3-(2-methyl-2H-indazol-5-yl)-1-oxo-1,2-dihydroisoquinolin-5-yl)ethyl)amino)benzoic acid] | 6.94 | 5.18 | 6.78 | >86 | 13.8
3 | Cc1cc(C(C)Nc2ccccc2C(=O)O)c2cc(-c3ccccc3)n(C)c(=O)c2c1 (centres unmarked) [Example 1, 2-((1-(2,7-dimethyl-1-oxo-3-phenyl-1,2-dihydroisoquinolin-5-yl)ethyl)amino)benzoic acid] | 7.07 | 5.56 | 7.36 | >118 | 48.6
4 | Cc1cc(C(C)Nc2ccccc2C(=O)O)c2cc(C3=Cc4ccccc4CC3)n(C)c(=O)c2c1 (centres unmarked) [Example 45, 2-((1-(3-(3,4-dihydronaphthalen-2-yl)-2,7-dimethyl-1-oxo-1,2-dihydroisoquinolin-5-yl)ethyl)amino)benzoic acid] | 6.08 | 5.14 | 7.19 | >12 | 44.0
5 | Cc1cc(C(C)Nc2ccccc2C(=O)O)c2cc(C3=CCN(c4ccccc4)C3)n(C)c(=O)c2c1 (centres unmarked) [Example 76, 2-((1-(2,7-dimethyl-1-oxo-3-(1-phenyl-2,5-dihydro-1H-pyrrol-3-yl)-1,2-dihydroisoquinolin-5-yl)ethyl)amino)benzoic acid] | 6.17 | 4.93 | 6.91 | >14.8 | 43.5
6 | Cc1cc(C(C)Nc2ccccc2C(=O)O)c2cc(-c3ccc(C4(O)CC4)cc3)n(C)c(=O)c2c1 (centres unmarked) [Example 62, 2-((1-(3-(4-(1-hydroxycyclopropyl)phenyl)-2,7-dimethyl-1-oxo-1,2-dihydroisoquinolin-5-yl)ethyl)amino)benzoic acid] | 6.93 | 5.33 | 6.89 | >85 | 22.9
7 | Cc1cc(C(C)Nc2ccccc2C(=O)O)c2cc(-c3ccc(F)cc3)n(C)c(=O)c2c1 (centres unmarked) [Example 8, 2-((1-(3-(4-fluorophenyl)-2,7-dimethyl-1-oxo-1,2-dihydroisoquinolin-5-yl)ethyl)amino)benzoic acid] | 6.80 | 5.22 | 7.18 | >63 | 37.7
8 | Cc1cc(C(C)Nc2ccccc2C(=O)O)c2cc(-c3cccc4cn(C)nc34)n(C)c(=O)c2c1 (centres unmarked) [Example 22, 2-((1-(2,7-dimethyl-3-(2-methyl-2H-indazol-7-yl)-1-oxo-1,2-dihydroisoquinolin-5-yl)ethyl)amino)benzoic acid] | < 5.00 | 4.28 | 5.76 |  | >5.7
9 | Cc1cc(C(C)Nc2ccccc2C(=O)O)c2cc(C#Cc3ccccc3)n(C)c(=O)c2c1 (centres unmarked) [Example 43, 2-((1-(2,7-dimethyl-1-oxo-3-(phenylethynyl)-1,2-dihydroisoquinolin-5-yl)ethyl)amino)benzoic acid] | 6.21 | 5.63 | 6.39 | >16 | 4.0
10 | Cc1cc(C(C)Nc2ccccc2C(=O)O)c2cc(C#CC3(O)CCCC3)n(C)c(=O)c2c1 (centres unmarked) [Example 89, 2-((1-(3-((1-hydroxycyclopentyl)ethynyl)-2,7-dimethyl-1-oxo-1,2-dihydroisoquinolin-5-yl)ethyl)amino)benzoic acid] | 6.03 | 5.16 | 6.74 | >11 | 37.2
11 | Cc1cc(C(C)Nc2ccccc2C(=O)O)c2cc(-c3cccc(C(F)(F)F)c3)n(C)c(=O)c2c1 (centres unmarked) [Example 50, 2-((1-(2,7-dimethyl-1-oxo-3-(3-(trifluoromethyl)phenyl)-1,2-dihydroisoquinolin-5-yl)ethyl)amino)benzoic acid] | 5.49 | 4.98 | 7.06 | >3.1 | 79.1
12 | Cc1cc(C(C)Nc2ccccc2C(=O)O)c2cc(-c3ccc(N4CCCC4)cc3)n(C)c(=O)c2c1 (centres unmarked) [Example 84, 2-((1-(2,7-dimethyl-1-oxo-3-(4-(pyrrolidin-1-yl)phenyl)-1,2-dihydroisoquinolin-5-yl)ethyl)amino)benzoic acid] | 6.33 | 4.83 | 7.22 | >22 | 52.0
13 | Cc1cc([C@H](C)Nc2ccccc2C(=O)O)c2cc(-c3ccc(F)cc3)n(C)c(=O)c2c1 [Example 35, (S)-2-((1-(3-(4-fluorophenyl)-2,7-dimethyl-1-oxo-1,2-dihydroisoquinolin-5-yl)ethyl)amino)benzoic acid] | < 5.00 | < 4.00 | < 5.00 |  | 
14 | Cc1cc(C(C)Nc2ccccc2C(=O)O)c2cc(-c3cncc(F)c3)n(C)c(=O)c2c1 (centres unmarked) [Example 38, 2-((1-(3-(5-fluoropyridin-3-yl)-2,7-dimethyl-1-oxo-1,2-dihydroisoquinolin-5-yl)ethyl)amino)benzoic acid] | 6.67 | 5.01 | 6.55 | >46 | >35
